From US6903104B2, “Indol-3-YL-2-oxoacetamide compounds and methods of use thereof” (National Health Research Institutes, priority 2001, dated 2005) come the findings set out here.

Assay [1] relates to colorectal DLD1 cancer cells. The assay can be described thus: In vitro cytotoxicity MTS assay, colorectal DLD1. Format: cell-based, human. Conditions: 72 hours. How it is done:
(§1) A panel of human cancer cells, gastric NUGC3 and HR, nasopharyngeal HONE1, hepatocellular HEP G2 and HA-22T, colorectal DLD1, lung A549, prostate PC3, breast MCF7 and its adriamycin-resistant MCF7/ADR subline, uterus MES-SA and its adriamycin-resistant MES-SA/Dx5 subline, is purchased from Food Industry Research and Development Institute, Hsinchu, Taiwan R.O.C. or American Type Culture Collection, Manassas, Va. U.S.A., are used in in vitro cytotoxicity assays. The human cells are seeded at a cell density of 3000 or 4500 cells/100 μl/well in 96-well flat-bottom plates and incubated for 24 hours at 37° C. in a 5% CO2 incubator. The testing compounds are dissolved in dimethyl sulfoxide (DMSO) and further diluted into the culture medium for treatments of human cancer cells in vitro. The drug-containing media has a final DMSO concentration of ≦0.3%. The compounds of this invention are prepared in culture media for testing at a range of concentrations from 10, 1, 0.1, 0.01 to 0.001 μM. Each compound solution is (200 μl/well in duplicate) in the cell plates and is treated for 72 hours at 37° C., 5% CO2 in an incubator. Actinomycin D at 5 μM and 0.3% DMSO are used as the positive and vehicle controls, respectively. A colorimetric assay using 3-(4,5-dimethylthiazol-2-yl)-5-(3-carboxymethoxyphenyl)-2-(4-sulfophenyl)-2H-tetrazolium (MTS) and phenazine methosulfate (PMS) is used to determine the potency of the compounds. This assay measures cell viability based on the cellular activity in conversion of a tetrazolium salt into a colored soluble formazan product. The optical density (OD) values are measured at 490 nm with a 1420 multilabel counter VICTOR® from Wallac, Turku, Finland. All of the measured values are subtracted with that of the blank control wells without cells before further calculations. The efficacy data are expressed as a percentage normalized to the vehicle controls as calculated in the following formulae. Inhibitory potency (% of vehicle control)=[(OD490compound−OD490blank)/(OD490vehicle−OD490blank)]×100%. The concentration (IC50) of a test compound that inhibits 50% of the cellular activity is determined.

Assay [2] deals with hepatocellular HA-22T cancer cells. The assay can be described thus: In vitro cytotoxicity MTS assay, hepatocellular HA-22T. Format: cell-based, human. The note with it: 72 hours. How it is done: as §1
A general note: Tetrazolium assays rely on reduction of a dye to a coloured formazan, in cell work by metabolically active cells.

In assay [3] the test system is nasopharyngeal HONE1 cancer cells. The assay is described as follows: In vitro cytotoxicity MTS assay, nasopharyngeal HONE1. In kind it is cell-based, human. The note with it: 72 hours. The protocol:
as §1

A further assay concerns gastric HR cancer cells. The assay is described as follows: In vitro cytotoxicity MTS assay, gastric HR. In kind it is cell-based, human. The note with it: 72 hours. The protocol:
as §1

Another assay has as its system lung A549 cancer cells. The assay can be described thus: In vitro cytotoxicity MTS assay, lung A549. In kind it is cell-based, human. The note with it: 72 hours. How it is done: as §1
Another assay deals with breast MCF7 cancer cells. The assay is described as follows: In vitro cytotoxicity MTS assay, breast MCF7. In kind it is cell-based, human. Conditions: 72 hours. The protocol:
as §1

Assay [4] deals with adriamycin-resistant MCF7/ADR subline. The assay can be described thus: In vitro cytotoxicity MTS assay, adriamycin-resistant MCF7/ADR. The note with it: 72 hours. In kind it is cell-based, human. How it is done: as §1
The test system of assay [5] is uterus MES-SA cancer cells. The assay can be described thus: In vitro cytotoxicity MTS assay, uterus MES-SA. Format: cell-based, human. The note with it: 72 hours. The protocol:
as §1

The subject of assay [6] is rat aorta endothelial cells. The assay can be described thus: Rat aorta tube formation assay (angiogenesis inhibition). Format: cell-based, Spraque-Dawley rats. Details: key: Noninhibitors are indicated by the symbol (−), meaning that the extent of endothelial cell growth is essentially at the same level as that of the control; The most potent inhibitors receive a score of (+++++), indicating essentially no measurable endothelial cell growth. The note with it: 5 days. How it is done: The procedures are modified from previous reports (Burbridge and West 2001; Bauer et al. 2000; Nicosai and Ottinetti 1990a) and described as follows. Male Spraque-Dawley rats of 6-8 weeks old are purchased from the National Laboratory Animal Breeding and Research Center (Taipei, Taiwan). The animals are anesthetized with urethane (2 g/kg, intraperitoneal) and the thoracic aortas are quickly harvested in a laminar flow hood. The aortas are rinsed with ice-cold normal saline with 10 μg/ml gentamicin and the attached fibroadipose tissues are removed using micro-dissection scissors. The aortas are cross-sectioned into rings of 1 mm in thickness. A mixture of Matrigel®, purchased from BD Biosciences, solution and the EBM-II medium, purchased from BioWhittaker Inc., (1:1) with 2% FBS, 0.25 mg/ml, amphotericin B and 10 μg/ml gentamicin is prepared and added at 100 μl to each well of a 48-well plate. The mixture is allowed to gel at 37° C. Aorta rings are then placed onto the gelled matrix and embedded in an additional 150 μl per well of the mixture solution and allowed to gel at 37° C. The aorta rings are then covered with 125 μl of the EGM-II medium and incubated overnight in humidified incubator with 5% CO2/95% air at 37° C. After removal of the EGM-II from the established aorta cultures, the compound-containing media are applied at 300 μl per well to the cultures and then incubated in 5% CO2/95% air at 37° C. for 5 days. The cultures are then subject to the 3-[4,5-dimethylthiazol-2-yl]-2,5 diphenyl-2H-tetrazolium bromide (MTT) or 3-(4,5-dimethylthiazol-2-yl)-5-(3-carbomethoxyphenyl)-2H-tetrazolium (MTS) assay and OD490 nm values measured. The testing compounds are dissolved in dimethyl sulfoxide (DMSO) and prepared in EBM-II media with at a final concentration of DMSO less than 0.1%.
The capillary-like, tube structure of the outgrown rat aorta endothelial cells is easily visualized by MTT staining. The medium on top of the matrix is removed from the established aorta ring cultures. MTT solution of 5 mg/ml in saline is added to the cultures at 100 μl/well and the cultures are incubated in a CO2 incubator at 37° C. for 24 hr. The stained cultures are then examined under a microscope DMIRB from Leica and photos taken with a digital camera.
Inhibition activity is also assessed in the following manner. The reductive reaction of MTS initiated by the viable cellular mitochondrial activity is used as a basis for the measurement of cell viability (Cory et al. 1991; Gieni et al. 1995). To the rat aorta ring cultures 300 μl of a solution containing 100 μg MTS and 1 μg, phenazine methosulfate is added per well and incubated in 5% CO2/95% air at 37° C. for 24 hr. During the incubation, MTS is converted to formazan product. At the end of incubation, the solution overlaying the gel is well-mixed and 100 μl aliquots are transferred into a 96-well plate for measurement of OD490 nm with a spectrophotometer VICTOR™-II from Wallac Oy.
The compounds listed in Table 3 are screened for angiogenesis inhibition. The control compound, ASTA, is D-24851, N-[pyridin-4-yl]-[1-(4-chlorobenzyl)-indol-3-yl]-glyoxylic acid amide. Noninhibitors are indicated by the symbol (−), meaning that the extent of endothelial cell growth is essentially at the same level as that of the control.

Take `Cc1cc(Cn2cc(C(=O)C(=O)Nc3cc(C)ns3)c3ccccc32)on1` [Compound 56]: the IC50 (commonly the concentration that gives 50% inhibition) is 41 nM in assay [1]; 123 nM in assay [2]; 4 nM in assay [3]; 8 nM with gastric HR cancer cells; 557 nM with lung A549 cancer cells; 36 nM in the assay on breast MCF7 cancer cells. Further, the 50% inhibitory concentration (IC50) came to 5000 nM in assay [4] and 293 nM in assay [5]. Also, the entries for the “Inhibition Score” value in assay [6] (final conc. 0.3 μg/ml) and in [6] (final conc. 1 μg/ml) were “+++++” and “−”, respectively.

With `Cc1cc(NC(=O)C(=O)c2cn(Cc3ccc(C#N)cc3)c3ccccc23)sn1` [Compound 25], the half-maximal inhibitory concentration (IC50) in [1] stood at 543 nM; in [2], 692 nM; in assay [3] it was 207 nM; in the assay on gastric HR cancer cells it was 340 nM; with lung A549 cancer cells, 545 nM; with breast MCF7 cancer cells, 469 nM. Further, the IC50 turned out to be 5240 nM in assay [4] and 373 nM in assay [5]. For the same molecule, in [6] (final conc. 0.3 μg/ml), the “Inhibition Score” value is recorded as “+++++”.
